Assay results: patent publication US12570661B2, “Isoform-specific aldehyde dehydrogenase inhibitors” (The Board of Trustees of the Leland Stanford Junior …, priority 2020, dated 2026)

Experiments:
Hedgehog (Hh) signaling = test: Hh pathway assay (Shh-LIGHT2 Gli-dependent luciferase reporter, NIH-3T3); type: cell-based, murine; details: Mus musculus; read-out: IC50 in Hh pathway assays
Description: NIH-3T3 cells stably transfected with Gli-dependent firefly luciferase reporter (Shh-LIGHT2 cells (Taipale, J. et al. (2000) Nature 406, 1005-1009) were seeded into 96-well plates at a density of 2×10^4 cells/well and cultured for 24 h. The cells were then cultured in low-serum (0.5% CS) media containing 100 U/mL penicillin, 100 μg/mL streptomycin, and 200 nM Smoothened agonist (SAG) (Chen, J. K. et al. (2002) Proc. Natl. Acad. Sci. U.S.A. 99, 14071-14076; Frank-Kamenetsky, M. et al. (2002) J. Biol. 1, 10) for 30 h. CellTiter AQueous One (20 μL/well; Promega) was added to the cells and incubated for 30 min at 37° C., and cell viabilities were measured as the 490-nm absorbance of the culture media using a Spectramax M2e microplate reader (Molecular Devices). The cells were then washed with PBS and incubated with Bright-Glo reagent (100 μL/well; Promega) for 5 min at room temperature. The resulting chemiluminescence was measured on a Veritas microplate luminometer (Turner BioSystems) and normalized to the CellTiter signal. The normalized luciferase activities for each compound treatment regimen were normalized further to the DMSO control, and dose-responsive curves were generated using Prism software (GraphPad).

ALDH2 = target: T1, ALDH2 (Homo sapiens, UniProt P05091); test: ALDH2 enzyme kinetics assay; type: biochemical; details: 50-μM compound concentration
T1 construct: made in house
T1 sequence (P05091 18-517): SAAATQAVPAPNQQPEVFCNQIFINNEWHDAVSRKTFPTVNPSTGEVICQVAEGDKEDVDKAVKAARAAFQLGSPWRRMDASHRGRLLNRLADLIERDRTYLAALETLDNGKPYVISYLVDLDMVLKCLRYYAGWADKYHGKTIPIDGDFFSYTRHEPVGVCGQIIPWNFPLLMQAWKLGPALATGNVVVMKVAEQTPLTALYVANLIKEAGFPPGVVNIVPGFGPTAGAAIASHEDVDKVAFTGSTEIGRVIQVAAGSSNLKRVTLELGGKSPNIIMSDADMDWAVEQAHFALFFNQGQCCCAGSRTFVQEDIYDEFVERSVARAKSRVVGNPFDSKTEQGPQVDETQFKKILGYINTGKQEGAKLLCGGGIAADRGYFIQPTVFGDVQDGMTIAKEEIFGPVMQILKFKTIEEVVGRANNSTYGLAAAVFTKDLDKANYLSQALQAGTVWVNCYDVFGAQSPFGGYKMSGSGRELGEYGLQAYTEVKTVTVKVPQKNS
Description: Cloning, expression, and purification of human recombinant ALDH1A1, ALDH1A3, ALDH2, ALDH3A1, ALDH3A2, ALDH4A1, ALDH5A1 and ALDH7A1 isozymes were conducted as described previously (Chen, C. H. et al. (2015) Proc. Natl. Acad. Sci. U.S.A. 112, 3074-3079). Human ALDH1A2 (Origene, SC109995) and ALDH1B1 (T. Hurley, Indiana University) plasmids were cloned into the pET-15b expression vector (Novagen, 69661-3) containing an N-terminal hexahistidine tag. The mitochondria-targeting sequence of ALDH1B1 was also removed. […] The protein concentration for each fraction was measured (500 μL elution volume was collected as one fraction and was immediately mixed with 500 μL glycerol. The protein concentration for each fraction was measured (600 nm Protein Assay Reagent; Thermo Fisher Scientific), and protein-containing fractions were diluted with an equal volume of glycerol and stored at −80° C. Samples from each step were also collected for SDS-PAGE gel analysis. For ALDH1B1 protein co-expression with chaperones, pET-15b-ALDH1B1 and GroEL/GroES (Addgene, plasmid pBB541) plasmids were co-transformed into competent BL21 E. coli cells, which were subsequently grown in 1 L of Luria-Bertani medium containing 100 μg/mL ampicillin and 50 μg/mL spectinomycin at 37° C. […]

SMILES: COc1ccccc1-n1cc(-c2ccc(-c3ccccc3)cc2)[n+]2c1CCCCC2 [Imidazolium 2]
- IC50 (Hedgehog (Hh) signaling): ~700 nM
- inhibition of ALDH2 activity (ALDH2): neither imidazolium 1 or 2 could inhibit ALDH2 activity
